Test results published in article PMC7806714, “Statins for the prevention of proliferative vitreoretinopathy: cellular responses in cultured cells and clinical statin concentrations in the vitreous” (Scientific Reports, 2021).
Read-outs that look alike come from different tables or passages of the source.

Columns and labels:
[1] = tested on: ARPE-19 cells; assay: LDH release assay (cell membrane integrity); type: cell-based, human
Protocol: (§1) Cell viability was assessed by determining the amount of LDH enzyme from culture media using a commercial kit (Promega Corporation, USA) according to the manufacturer’s protocol. This assay provides information about the integrity of the plasma membranes of the cells (high LDH levels meaning cell damage). In addition, the cell viability was examined with MTT assay, as described previously. In viable cells, the mitochondrial succinate dehydrogenase enzyme can metabolize the MTT dye into formazan that absorbs light at the 550 nm wavelength.

[2] = MTT cell viability assay; type: cell-based, human; conditions: human, ARPE-19 cells; dissolved in DMSO; read-out: Cell viability (MTT) compared to DMSO control
Protocol: as §1

[3] = tested on: ARPE-19 cells; assay: MTT cell viability assay; type: cell-based, human
Protocol: as §1

[4] = UPLC-MS/MS statin and metabolite concentrations in vitreous of vitrectomy patients on oral statins; type: in vivo, human
Protocol: The study was conducted according to the tenets of the Declaration of Helsinki, and was approved by the Institutional Review Board and Ethical committee of Helsinki University Central Hospital. Twenty patients were enrolled; fifteen with per oral statin treatment and five controls. Signed informed consent was obtained from each participant prior to the vitreous sampling. Confidentiality of the patient records was maintained when the clinical data were entered into a computer-based standardized data entry for analysis. Sixteen patients were being operated due to PDR; of these, five patients had also Tractional Retinal Detachment (TRD); two patients were operated due to RRD, one due to age-related epiretinal fibrosis (pucker), and one due to a macular hole (Supplementary Table S2). […] All vitrectomies were performed by the recruiting vitreoretinal surgeon (SL). […] The samples were collected by manual aspiration into a syringe via the vitrectomy with the cutting function activated. Sample aliquots were transferred into sterile 1.5 mL microcentrifuge tubes (Freemont, CA, USA) and immediately frozen and stored at − 70 °C until laboratory analysis. […] All reference compounds and internal standards were purchased from Toronto Research Chemicals (Toronto, Canada). Samples (100 µl) were divided into two aliquots and kept at − 80 °C prior to analysis. […] Homogenizer blocks were pre-cooled by placing them at − 20 °C. […] Supernatants (120 µl) were pipetted into analytical vials and the concentrations of the statins were measured with Ultra-high Pressure Liquid Chromatography—tandem Mass Spectrometry (UPLC-MS/MS) technique. The same pre-treatment protocol was used to prepare calibration curves and quality control samples but homogenized and filtered porcine vitreous were used as a matrix instead of human vitreous. A minimum of six calibration curve concentrations was used for quantitation of the compounds. Two parallel calibration curve sets included all eleven analytes and four deuterated internal standards. Three quality control samples in three parallel sets were used to validate the method. The linear range varied from approximately 0.004 to 10 ng/mL depending on the analyte. Limit of quantitation was set to the smallest calibration curve point of each drug. Each sample was analysed twice and the average of these values was designated as the concentration of the sample. […] For rosuvastatin, two metabolites were analysed: rosuvastatin lactone and N-desmethyl rosuvastatin lactone. Rosuvastatin D6 was used as an internal standard. The parent drug, its metabolites and internal standard were analysed from the same sample in each case. Liquid chromatography separation was carried out using a Waters Acquity UPLC instrument (Waters, MA, USA) coupled with Waters HSS T3 C18 (2.1 × 100 mm, 1.8 µm) column at 40 °C. The mobile phase consisted of 0.1% formic acid in ultrapure water (A) and 100% of LC–MS grade acetonitrile (B). […] The flow rate was set to 0.3 mL/min and injection volume 1.5 µl. After every three samples, a solvent blank was run to control for any carry over. Mass spectrometry measurements were carried out using a Waters Xevo Triple Quadruple mass spectrometer (TQ-S) equipped with an ESI source. […] The source parameters were as follows: Capillary voltage 2.8 kV, source temperature 150 °C and desolvation temperature 500 °C. Nitrogen (Aga, Helsinki, Finland) was used as a desolvation gas (800 l/h), a cone gas (150 l/h) and a nebulizer gas (7 bar). Argon (Aga, Helsinki, Finland) was used as a collision gas (0.15 mL/min). The Multiple Reaction Monitoring (MRM) mode was used for quantification. Precursor and fragment ions, as well as other optimized parameters are listed in Supplementary Table S3.

[5] = plasma, cited from earlier work
[6] = free fraction of drug in plasma; ref summary of product characteristics document; cited from earlier work
[7] = tested on: IL-6; assay: ELISA of LPS-induced IL-6 release from ARPE-19 cells
[8] = tested on: IL-8; assay: ELISA of LPS-induced IL-8 release from ARPE-19 cells; conditions: 5 µM, 24 h prior to LPS
[9] = tested on: MCP-1; assay: ELISA of LPS-induced MCP-1 release from ARPE-19 cells
[10] = oral 20 mg/d, patients' vitreous
[11] = 10 mg/d single oral dose, n=12, China, ref [30]
[12] = 10 mg/d single oral dose, n=18, Germany, ref [31]
[13] = 20 mg/d single oral dose, n=6, UK, ref [32]
[14] = 20 mg/d single oral dose, n=12, Chinese, ref [30]
[15] = 48 h exposure prior to LPS, 1.5, 5, 10 µM tested

## CC(C)c1nc(N(C)S(C)(=O)=O)nc(-c2ccc(F)cc2)c1/C=C/[C@@H](O)C[C@@H](O)CC(=O)O [Rosuvastatin]
[1]; 24 h exposure, with LPS, dissolved in DMSO
  LDH levels / cell membrane integrity: more damage to the cell membrane
[1]; 24 h exposure, without LPS, dissolved in DMSO
  LDH levels / cell membrane integrity: protected the integrity of the cell membrane
[1]; 48 h exposure, with LPS, dissolved in DMSO
  LDH levels / cell membrane integrity: protect cells from LPS-induced cell membrane rupturing
[1]; 48 h exposure, dissolved in DMSO
  LDH levels / cell membrane integrity: acute toxic effects on the cell membrane
[1]; dissolved in water, 48 h, with LPS
  LDH levels / cell membrane integrity: interfered with the cell membrane integrity
[1]; dissolved in water, within 24 h, irrespective of LPS
  LDH levels: did not cause any changes in the LDH levels
[2]
  viability: 88%
[3]; dissolved in DMSO, 24 h or 48 h, with or without LPS
  Cellular toxicity in MTT test: well tolerated
[3]; dissolved in water
  Cell viability in MTT assay: did not compromise cell viability
[4]; 10–20 mg daily, oral
  vitreous concentration range: 52 to 316 pg/mL
[4]; oral 10 mg/d, patients' vitreous
  Measured Cv Average: 0.055 ng/mL
[4]; [10]
  Measured Cv Range (lower): 0.052 ng/mL
  Measured Cv Range (upper): 0.316 ng/mL
[4]; patient 359, Pucker, diabetes, oral rosuvastatin 20 mg
  Concentration in vitreous sample: 0.056 ng/mL
[4]; patient 371, PDR, dose 0* (control without reported statin treatment)
  Concentration in vitreous sample: 0.241 ng/mL
[4]; patient 383, PDR, oral rosuvastatin 10 mg
  Concentration in vitreous sample: 0.055 ng/mL
[4]; patient 397, PDR, oral rosuvastatin 20 mg
  Concentration in vitreous sample: 0.168 ng/mL
[4]; patient 412, PDR, oral rosuvastatin 20 mg
  Concentration in vitreous sample: 0.316 ng/mL
[4]; patient 428, MH, diabetes, not DR, oral rosuvastatin 20 mg
  Concentration in vitreous sample: 0.052 ng/mL
[5]; [11]
  AUC0−∞: 103 ng·h/mL
  Cmax: 10.8 ng/mL
[5]; [12]
  AUC0−∞: 48.4 ng·h/mL
  Cmax: 4.5 ng/mL
[5]; [13]
  AUC0−∞: 63.1 ng·h/mL
  Cmax: 6.1 ng/mL
[5]; [14]
  AUC0−∞: 177 ng·h/mL
  Cmax: 19.2 ng/mL
[6]
  fu: 0.12
[7]; 5 µM, 24 h prior to LPS (rosuvastatin: DMSO and water)
  LPS-induced release of IL-6: reduced
[7]; 10 µM, 24 h prior to LPS (rosuvastatin: DMSO and water)
  LPS-induced release of IL-6: reduced
[7]; [15]
  LPS-induced release of IL-6: decreasing trends
[8]
  LPS-induced release of IL-8: reduced
[9]; 5 µM, 24 h prior to LPS
  LPS-induced release of MCP-1: decreased
[9]; [15]
  LPS-induced release of MCP-1: decreasing trends
